Assay results published in patent US8466172B2, “Stabilization of hypoxia inducible factor (HIF) alpha” (FibroGen, Inc., priority 2001, dated 2013).

Assays:
[1] = tested on: vascular endothelial growth factor (VEGF); assay: VEGF expression in conditioned media, QUANTIKINE immunoassay; format: cell-based, human; details: HFF, 293A and Hep3B cells
Method: When cell layers reached confluence, the media was replaced with OPTI-MEM media (Invitrogen Life Technologies, Carlsbad Calif.) and cell layers were incubated for approximately 24 hours in 20% O2, 5% CO2 at 37° C. Compound of the invention (one of compounds A to O) or DMSO (0.5 to 1%) was then added to existing medium, and incubation was continued overnight.
Conditioned media collected from cell cultures grown as in Example 1 was analyzed for vascular endothelial growth factor (VEGF) expression using a QUANTIKINE immunoassay (R&D Systems) according to the manufacturer's instructions. […] Values on the y-axis represent fold-induction relative to control and are reported on a log2 scale, such that a value of 1 represents 2-fold induction.

HIF-regulated genes = assay: Expression of HIF-regulated genes in vivo, Murine genome U74AV2 array; parameters: species or system mouse; details: 100 mg/kg oral gavage
Method: Twenty four Swiss Webster male mice (30-32 g) were obtained from Simonsen, Inc., and treated by oral gavage with a 4 ml/kg volume of either 0.5% CMC (Sigma-Aldrich) (0 mg/kg/day) or […] Compound A (25 mg/ml in 0.5% CMC) (100 mg/kg). At 4, 8, 16, 24, 48, or 72 hours after the final dose, animals were anesthetized with isoflurane and a blood sample was collected from the abdominal vein. The blood sample was collected into a MICROTAINER serum separator tube (Becton-Dickinson, Franklin Lakes N.J.), incubated at room temperature for 30 minutes, centrifuged at 8,000 rpm at 4° C. for 10 min, and cell pellet was resuspended in […] solution (Ambion) and stored at −80° C. The mice were then sacrificed and tissue samples of kidney, liver, brain, lung, and heart were isolated and stored in […] solution (Ambion) at −80° C.
RNA isolation was carried out using the following protocol. […] The RNA was eluted into 80 μL of water and quantitated with RIBOGREEN reagent (Molecular Probes, Eugene Oreg.). […] The absorbance at 260 and 280 nm was measured to determine RNA purity and concentration.
Alternatively, tissue samples were diced and homogenized in TRIZOL reagent (Invitrogen Life Technologies, Carlsbad Calif.) using a rotor-stator POLYTRON homogenizer (Kinematica). […] The absorbance at 260 and 280 nm was measured to determine RNA purity and concentration. […]

[2] = tested on: Wistar rats, acute myocardial infarction (AMI); assay: Cardiac ischemia Experiment I, 10-week study after acute myocardial infarction; format: in vivo, rat
Method: Alternatively, one hundred forty adult male Wistar rats (200-250 g) were anaesthetized and subjected to left coronary artery occlusion to produce AMI. Forty-eight hours after surgery, 2DE images were obtained and animals with a significant area of infarction were randomized to treatment with compound A (n=34) or vehicle (n=34).
Animals were treated by gavage 2 times per day for the duration of the experiment with compound A at 50 mg/kg or with vehicle alone. Serum level of drug was determined periodically to establish that treated animals received sufficient and consistent amount of drug and that the measured levels were sufficient to inhibit prolyl 4-hydroxylase.
Digital mid-papillary muscle and apical four chamber 2DE images were obtained biweekly on half of the animals in each group until week 8. Two observers blinded to treatment did measurements off-line. For the measurements, the digital images were slowed and frozen at end systole and end diastole. Two to three endocardial surfaces were traced in both the short axis and four chamber views and averaged. The left ventricular area in systole and diastole, ejection fraction, fractional area change, wall thickness, mitral peak E wave velocity, aortic peak velocity, and infarct size were measured.
After 10 weeks of treatment, in vivo hemodynamic measurements were determined and hearts were excised and weighed as described below.
To collect in vivo hemodynamic measurements, animals were anaesthetized and the right carotid artery was dissected free from surrounding tissues and canulated with an SPR-671 ultra-miniature pressure transducer (Millar Instruments, Inc., Houston Tex.). The catheter was then advanced into the left ventricle. After steady state was established, baseline heart rate (HR), developed pressure (DP), contractile index (CI), left ventricle systolic pressure (SBP) and end diastolic pressure (LVEDP), and maximal rate of pressure rise and fall (+dP/dt and −dP/dt, respectively) were recorded.
Following hemodynamic measurement, hearts were excised and weighed. Pieces of scarred myocardium, and right ventricle and left ventricle myocardium distant from the site of infarct were dissected out and weighed. Hydroxyproline and proline were determined by the method of Palmerini et al. (1985, J Chromatogr 339:285-92) except that L-azetidine-2-carboxylic acid (Sigma-Aldrich) was substituted for 3,4-dehydroproline as the internal standard.

For `O=C(O)c1c[nH]c2c(ccc3cccnc32)c1=O` [Compound A, 4-oxo-1,4-dihydro-[1,10]phenanthroline-3-carboxylic acid], the “VEGF expression in conditioned media (FIG. 4A)” value [1] was “increase in VEGF expression”, the “expression of genes encoding glycolytic enzymes (FIG. 7A)” value (HIF-regulated genes; mouse kidney) was “increased” and the “expression of genes encoding angiogenic proteins (FIG. 5A)” value (HIF-regulated genes; mouse lung) was “increased”. The “deaths immediately following insult to the heart (FIG. 8)” value ([2]; 50 mg/kg gavage 2 times per day, n=34) was “no deaths”, the “percent of treated group still alive” value ([2]; 8 weeks after myocardial infarction, 50 mg/kg gavage 2 times per day) was “over 90%” and the “+dP/dt” value ([2]; 10 weeks post-MI) was 6701 ± 331 mm Hg/sec. For the same compound, the Developed pressure ([2]; 10 weeks post-MI) was 97 ± 3 mm Hg, the “Hydroxyproline/proline in infarct scar” value ([2]; 10 weeks post-MI) was 0.471 ± 0.024 and the “Hydroxyproline/proline in non-infarct left ventricular myocardium” value ([2]; 10 weeks post-MI) was 0.099 ± 0.025. The “Hydroxyproline/proline in non-infarct right ventricular myocardium” value ([2]; 10 weeks post-MI) was 0.152 ± 0.044, the “Systolic BP” value ([2]; 10 weeks post-MI) was 106 ± 4 mm Hg and the “−dP/dt” value ([2]; 10 weeks post-MI) was 6395 ± 373 mm Hg/sec. For the same compound, the “left ventricular ejection fraction (LVEF)” value ([2]; at randomization) was 33%, the “relative reduction in mortality” value ([2]; treated relative to untreated group, weeks 2 through 8) was 77% and the “left ventricular ejection fraction (LVEF) relative to untreated controls (FIG. 10A)” value ([2]; weeks 2 through 8) was “statistically significant improvement”.
